Test results published in ChEMBL document CHEMBL3885861, “Open TG-GATES”.

Organism: Rattus norvegicus
Experiment: Open TG-GATES - Regimen: Single
Format: toxicity, organism-based, Sprague-Dawley
Design: regimen Single, gender Male, age 6 weeks
Conditions: in vivo, iv, 10 mg/kg, route intravenous injection, dose level High; for KIDNEY_L / KIDNEY_R / KIDNEY_TOTAL: tissue Kidney; for LIVER: tissue Liver; for ALP / ALT / AST / CRE / DBIL / GLC / K / LDH / Na / RALB / TBIL / TC / TG / TP / gamma-GTP: tissue Plasma

`COc1cccc2c1C(=O)c1c(O)c3c(c(O)c1C2=O)C[C@@](O)(C(=O)CO)C[C@@H]3O[C@H]1C[C@H](N)[C@H](O)[C@H](C)O1` [DOXORUBICIN] gave an Eos (3 h, tissue Blood) of 0.6%, a Fbg (3 h, tissue Blood) of 275.8 mg/dL and a Ht (3 h, tissue Blood) of 37.5%. It also gave a Lym (3 h, tissue Blood) of 60.4%, an MCH (3 h, tissue Blood) of 21.8 pg and an MCHC (3 h, tissue Blood) of 34.9%. It also gave an MCV (3 h, tissue Blood) of 62.3 fL, a Mono (3 h, tissue Blood) of 8.8% and a Neu (3 h, tissue Blood) of 27.4%. For the same compound, the PT (3 h, tissue Blood) was 16.5 s, the Plat (3 h, tissue Blood) was 121.7 x10_4/uL and the RBC (3 h, tissue Blood) was 603 x10_4/ul. It also gave a Ret (3 h, tissue Blood) of 6.2%, a KIDNEY_L (3 h) of 0.9 g and a KIDNEY_R (3 h) of 0.9 g. It also gave a KIDNEY_TOTAL (3 h) of 1.9 g, an LIVER (3 h) of 9.3 g and an ALP (3 h) of 1462.4 IU/L. The ALT (3 h) was 43 IU/L, the AST (3 h) was 86.6 IU/L and the CRE (3 h) was 0.1 mg/dL. The DBIL (3 h) was 0 mg/dL, the GLC (3 h) was 171.4 mg/dL and the K (3 h) was 4.6 meq/L. For the same compound, the LDH (3 h) was 187.2 IU/L, the Na (3 h) was 141.4 meq/L and the RALB (3 h) was 2.9 g/dL. For the same compound, the TBIL (3 h) was 0.008 mg/dL, the TC (3 h) was 75.4 mg/dL and the TG (3 h) was 140 mg/dL. It also gave a TP (3 h) of 5.1 g/dL, a gamma-GTP (3 h) of 1.6 IU/L and a TERMINAL_BW (6 h) of 205.6 g. For the same compound, the Bas (6 h, tissue Blood) was 0%, the Eos (6 h, tissue Blood) was 0.2% and the Fbg (6 h, tissue Blood) was 275.8 mg/dL. The Ht (6 h, tissue Blood) was 38%, the Lym (6 h, tissue Blood) was 64% and the MCH (6 h, tissue Blood) was 21.6 pg. It also gave an MCHC (6 h, tissue Blood) of 34%, an MCV (6 h, tissue Blood) of 63.4 fL and a Mono (6 h, tissue Blood) of 6.4%. The Neu (6 h, tissue Blood) was 26.4%, the PT (6 h, tissue Blood) was 16.2 s and the Plat (6 h, tissue Blood) was 118.6 x10_4/uL. The RBC (6 h, tissue Blood) was 599 x10_4/ul, the Ret (6 h, tissue Blood) was 6.9% and the KIDNEY_L (6 h) was 0.9 g. For the same compound, the KIDNEY_R (6 h) was 0.9 g, the KIDNEY_TOTAL (6 h) was 1.8 g and the LIVER (6 h) was 8.7 g. The ALP (6 h) was 1468.4 IU/L, the AST (6 h) was 86.4 IU/L and the CRE (6 h) was 0.2 mg/dL. For the same compound, the DBIL (6 h) was 0 mg/dL, the GLC (6 h) was 190.8 mg/dL and the K (6 h) was 4 meq/L. The LDH (6 h) was 180 IU/L, the Na (6 h) was 141 meq/L and the RALB (6 h) was 2.9 g/dL. For the same compound, the TBIL (6 h) was 0.036 mg/dL, the TC (6 h) was 69.4 mg/dL and the TG (6 h) was 54.4 mg/dL. It also gave a TP (6 h) of 5.1 g/dL, a gamma-GTP (6 h) of 1.6 IU/L and a TERMINAL_BW (9 h) of 206.9 g. It also gave a Bas (9 h, tissue Blood) of 0%, an Eos (9 h, tissue Blood) of 0.4% and a Fbg (9 h, tissue Blood) of 279.2 mg/dL. The Hb (9 h, tissue Blood) was 13 g/dL, the Ht (9 h, tissue Blood) was 38.2% and the Lym (9 h, tissue Blood) was 56.2%. The MCH (9 h, tissue Blood) was 21.3 pg, the MCHC (9 h, tissue Blood) was 34.1% and the MCV (9 h, tissue Blood) was 62.5 fL. The Mono (9 h, tissue Blood) was 5.6%, the Neu (9 h, tissue Blood) was 35.4% and the PT (9 h, tissue Blood) was 15.9 s. It also gave a Plat (9 h, tissue Blood) of 118.9 x10_4/uL, an RBC (9 h, tissue Blood) of 611.6 x10_4/ul and a Ret (9 h, tissue Blood) of 6.1%. For the same compound, the KIDNEY_L (9 h) was 0.9 g, the KIDNEY_R (9 h) was 0.9 g and the KIDNEY_TOTAL (9 h) was 1.9 g. It also gave an LIVER (9 h) of 8.2 g, an ALP (9 h) of 1273.6 IU/L and an AST (9 h) of 84.2 IU/L. It also gave a CRE (9 h) of 0.1 mg/dL, a DBIL (9 h) of 0.002 mg/dL and a GLC (9 h) of 186.2 mg/dL. The K (9 h) was 4.1 meq/L, the Na (9 h) was 139.6 meq/L and the RALB (9 h) was 3 g/dL. It also gave a TBIL (9 h) of 0.036 mg/dL, a TC (9 h) of 68.4 mg/dL and a TG (9 h) of 56.8 mg/dL. The TP (9 h) was 5.2 g/dL, the gamma-GTP (9 h) was 1.2 IU/L and the TERMINAL_BW (24 h) was 206.3 g. The Bas (24 h, tissue Blood) was 0%, the Eos (24 h, tissue Blood) was 0.8% and the Fbg (24 h, tissue Blood) was 323 mg/dL. For the same compound, the Ht (24 h, tissue Blood) was 37.9%, the Lym (24 h, tissue Blood) was 74.2% and the MCH (24 h, tissue Blood) was 22.1 pg. The MCHC (24 h, tissue Blood) was 35.9%, the MCV (24 h, tissue Blood) was 61.6 fL and the Mono (24 h, tissue Blood) was 3%. It also gave a Neu (24 h, tissue Blood) of 20.8%, a PT (24 h, tissue Blood) of 15.9 s and a Plat (24 h, tissue Blood) of 131.1 x10_4/uL. It also gave an RBC (24 h, tissue Blood) of 615.6 x10_4/ul, a Ret (24 h, tissue Blood) of 3.2% and a KIDNEY_L (24 h) of 0.9 g. The KIDNEY_R (24 h) was 0.9 g, the KIDNEY_TOTAL (24 h) was 1.8 g and the LIVER (24 h) was 9.1 g. For the same compound, the ALP (24 h) was 1298.4 IU/L, the ALT (24 h) was 28 IU/L and the CRE (24 h) was 0.2 mg/dL. For the same compound, the DBIL (24 h) was 0 mg/dL, the GLC (24 h) was 208.8 mg/dL and the K (24 h) was 4.9 meq/L. It also gave an LDH (24 h) of 129.2 IU/L, a Na (24 h) of 141.2 meq/L and an RALB (24 h) of 2.9 g/dL. It also gave a TBIL (24 h) of 0.014 mg/dL, a TC (24 h) of 82.4 mg/dL and a TG (24 h) of 60 mg/dL. The TP (24 h) was 5.2 g/dL and the gamma-GTP (24 h) was 1.4 IU/L.
